Target: T1, aminopeptidase II (Aspergillus oryzae, UniProt Q2ULM2)
T1 construct: the first 15 amino acids likely comprise a secretory signal peptide; made in house; host or cells: Aspergillus oryzae JaL142-6 (alkaline protease-deficient), plasmid pEJG19; purified from shake flask supernatant on Q-Sepharose
Assay: Inhibition of the aminopeptidase II with 1,10-phenanthroline, Leu-pNA as substrate
Type: biochemical
Settings: pH 7.5
Experimental: Inhibition of the aminopeptidase II with 1,10-phenanthroline was evaluated using Leu-pNA as substrate at pH 7.5 in 50 mM Tris pH 7.5 buffer where hydrolysis was monitored at 405 nm. A 200 mM solution of 1,10-phenanthroline in methanol was prepared. The inhibition reaction was conducted by mixing 100 μl of 2 mg of Leu-pNA per ml of 50 mM sodium phosphate pH 7.5 solution and 10 μl of the 1,10-phenanthroline solution with 100 μl of aminopeptidase II diluted 5-fold in 50 mM sodium phosphate pH 7.5 buffer. A control was run where 10 μl of 20 mM Tris pH 7.6 buffer was used in place of the 1,10-phenantholine solution.

T1 sequence (Q2ULM2 17-496): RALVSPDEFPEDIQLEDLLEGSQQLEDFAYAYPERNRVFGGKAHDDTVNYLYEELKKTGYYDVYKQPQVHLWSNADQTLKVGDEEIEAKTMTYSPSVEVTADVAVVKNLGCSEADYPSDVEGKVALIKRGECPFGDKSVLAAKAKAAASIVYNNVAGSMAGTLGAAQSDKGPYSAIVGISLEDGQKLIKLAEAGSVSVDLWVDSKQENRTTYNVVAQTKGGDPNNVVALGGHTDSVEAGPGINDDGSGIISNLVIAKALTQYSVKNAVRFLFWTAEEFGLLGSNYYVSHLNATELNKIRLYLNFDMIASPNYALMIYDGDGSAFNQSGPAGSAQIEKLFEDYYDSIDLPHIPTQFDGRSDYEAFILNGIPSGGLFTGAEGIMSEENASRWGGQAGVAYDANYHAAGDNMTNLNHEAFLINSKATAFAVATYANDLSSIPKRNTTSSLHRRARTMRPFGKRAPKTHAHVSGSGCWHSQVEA

Compound: c1cnc2c(c1)ccc1cccnc12 [1,10-phenanthroline]
- Inhibition of the aminopeptidase II (Leu-pNA as substrate, 10 μl of 200 mM 1,10-phenanthroline in methanol): inhibited
- rate of hydrolysis of Leu-pNA in the presence of 1,10-phenanthroline (control without inhibitor 285 mOD/minute): 21 mOD/minute

— patent US6800467B1, “Polypeptides having aminopeptidase activity and nucleic acids encoding same” (Novozymes Biotech, Inc., priority 1997, dated 2004)
